Values of other authors as cited in patent publication US11903920B2, “Cannabinoid formulation: production method and use” (CHIROSYN DISCOVERY TECHNOLOGIES INC., priority 2022, dated 2024).

Conditions: depending on the method and route of administration

## C=C(C)[C@@H]1CCC(C)=C[C@H]1c1c(O)cc(CCCCC)cc1O [CBD, 2-[1R-3-methyl-6R-(1-methylethenyl)-2-cyclohexen-1-yl]-5-pentyl-1,3-benzenediol]
  Half-life: 1.4 to 120 h
